Experimental data published in patent EP0640747B1, “Boiler system pH/phosphate program control method” (NALCO CHEMICAL COMPANY, priority 1993, dated 1995).

Assay: thermal stability of inert fluorescent tracers under boiler conditions
Assay type: physicochemical
Conditions: for thermally stable (substantially inert) for time: at 285 °C (545 °F); for thermally stable (substantially inert) at pressures up to: for time periods commensurate with commercial boiler holding times; for thermally stable (substantially inert) at temperatures up to: temperature limit, also printed as 1004 °F
From the text: Among the substantially boiler-system-inert fluorescent compounds are the mono-, di- and trisulfonated naphthalenes, including their water-soluble salts, particularly the various naphthalene mono- and disulfonic acid isomers, which are a preferred inert tracer(s) for use in the present invention. The naphthalene mono- and disulfonic acid isomers are water-soluble, generally available commercially and easily detectable and quantifiable by known fluorescence analysis techniques. Preferred naphthalene mono- and disulfonic acid isomers are the water-soluble salts of naphthalene sulfonic acid ("NSA"), such as 2-NSA, and naphthalene disulfonic acid ("NDSA" or "NDA"), for instance 1,5-NDSA. Many of these inert tracer(s) (mono-, di- and trisulfonated naphthalenes and mixtures thereof) are extremely compatible with the environments of most boiler systems.

SMILES	thermally stable (substantially inert) for time	thermally stable (substantially inert) at pressures up to	thermally stable (substantially inert) at temperatures up to
O=S(=O)(O)c1cccc2c(S(=O)(=O)O)cccc12 [1,5-NDSA, 1,5-naphthalene disulfonic acid]	at least 24 hours	about 1,500 psig	at least 540 °C
O=S(=O)(O)c1ccc2ccccc2c1 [2-NSA, 2-naphthalene sulfonic acid]	at least 24 hours	about 1,500 psig	at least 540 °C
